Assay results as given in patent US20210071180A1, “MICRORNA 584-5P COMPOSITIONS AND METHODS FOR TREATING CANCER” (BOARD OF REGENTS, THE UNIVERSY OF TEXAS SYSTEM, priority 2018, published 2021).

Key:
[1] = tested on: TUBB3, TUBB2a, and TUBB2b; assay: qPCR analysis of β-tubulin isotypes; format: cell-based; details: miR-584-5p-overexpressing cells
Procedure: DNA is stained with DAPI (blue), whereas spindle is stained with β-tubulin (red) (below).
VCR disrupts the integrity of the mitotic spindle and destabilizes microtubules (George, P., Journey, L. J. & Goldstein, M. N. J Natl Cancer Inst 35, 355-375 (1965)). Therefore, it was tested whether miR-584-5p and its target genes might affect microtubule dynamics. First, expression of tubulins was deteremined because VCR resistance has been associated with altered expression of tubulin isotypes (Sirotnak, F. M., Danenberg, K. D., Chen, J., Fritz, F. & Danenberg, P. V. Biochem Biophys Res Commun 269, 21-24, (2000)). […] In FIG. 12A, the p-values were calculated using standard Student t-tests. Error bars represent mean±SEM. ****, p<0.0001. […] The p-values were calculated using standard Student t-tests. Error bars represent mean±SEM. To further test how miR-584-5p and its target genes affect spindle integrity, immunofluorescence analysis was performed on miR-584-5p-overexpressing or eIF4E3/HDAC1-silenced MB cells. […] In FIG. 11F, the p-values were calculated using standard Student t-tests. Error bars represent mean±SEM. […] In FIG. 11H, The p-values were calculated using standard Student t-tests. Error bars represent mean±SEM. ****, p<0.0001; ***, p<0.001; **, p<0.01; *, p<0.05. Quantitative real-time PCR. Total RNA was extracted using miRNAeasy kit (Qiagen). […]

MB cells [2] = assay: 53BP1 nuclear foci immunofluorescence (DNA strand breaks); format: cell-based; details: vs scrambled-transfected MB cells
Procedure: FIG. 13C-D show representative immunofluorescence images showing 53BP1 foci in D556Med cells transfected with miR-NC or miR-584-5p mimic (C) or scramble-siRNA or eIF4E3/HDAC1-siRNAs (D) and treated with or without 10 Gy of IR.
Bar graphs next to images show average number of 53BP1 foci/cell. The p-values were determined by two-way ANOVA followed by Sidak's multiple-comparisons test. Error bars represent mean±SEM. Because miR-584-5p induces apoptosis, it was reasoned that DNA strand breaks induced by miR-584-5p and eIF4E3/HDAC1 silencing may not be properly repaired. To confirm those findings, a functional assay was performed to monitor homologous recombination (HR) because HR-dependent events repair IR-induced double-strand breaks in G2 phase. The ISceI-based DR-GFP reporter assay, which measures the frequency of double-strand break repair by HR (Gunn, A., Bennardo, N., Cheng, A. & Stark, J. M. Journal of Biological Chemistry 286, 42470-42482, (2011); Pierce, A. J., Johnson, R. D., Thompson, L. H. & Jasin, M. Genes & Development 13, 2633-2638, (1999); and Stark, J. M., Pierce, A. J., Oh, J., Pastink, A. & Jasin, M. Molecular and Cellular Biology 24, 9305-9316, (2004)), was used. […] The p-values were calculated using either Student t-tests (mimic) or one-way ANOVA followed by Dunnett's multiple-comparisons test (siRNAs). […]

[3] = tested on: DAOY cells stably expressing green fluorescent protein (GFP)-luciferase; assay: Orthotopic intracranial tumor xenograft, bioluminescence imaging and survival
Procedure: For in vivo studies, orthotopic intracranial transplantation of the scrambled and miR-584-5p-transfected DAOY cells stably expressing green fluorescent protein (GFP)-luciferase was performed. […] The p-values were determined by the sum-of-squares F test. Error bars represent mean±SEM. […] The p-value was determined using the log-rank (Mantel-Cox) test. Error bars represent SE. ****, p<0.0001; ***, p<0.001.
Animals and intracranial xenografts. Athymic nude mice (nu/nu) were obtained from Harlan, USA. Three- to 5-week-old athymic nude mice (nu/nu) were anesthetized using isoflurane by inhalation. Using a Hamilton syringe, 1 million cells were stereotactically implanted into the right corpus striatum at a depth of 3.5 mm at a point 2.5 mm lateral to the midline and 1.5 mm anterior to the bregma. After the surgery, the animal recovered on a heating pad in a normal mouse cage to maintain its body temperature at 37°-37.2° C. An ocular lubricating ointment (AKORN) was administered until spontaneous blinking resumed. Starting from week 2, control group animals received dimethyl sulfoxide, whereas VCR group animals received 1 mg of VCR (Sigma-Aldrich) per kg of body weight intraperitoneally once per week for 6 weeks. The Xenogen Small-Animal Imaging System was used for subcellular imaging in live mice once per week. Animals were killed, and brains were fixed and analyzed.

MB cells [4] = assay: Immunofluorescence count of mitotic cells; format: cell-based; details: vs scrambled-transfected cells
Procedure: To gain more insight into the tumor-suppressing and VCR-sensitizing activities of miR-584-5p, it was determined how the miR-584-5p mimic affected cell cycle progression of MB cells. […] Bar graphs show DNA histograms quantified using the FlowJo software. In FIG. 9A, the p-values were determined by two-way ANOVA followed by Tukey's multiple-comparisons test. Error bars represent mean±SEM. […] In FIG. 9B, the p-values were calculated using standard Student t-tests. Error bars represent mean±SEM. […] Next, it was determined whether miR-584-5p's effect on cell cycle progression may be mediated via its target genes eIF4E3/HDAC1. […] Bar graphs show dot plots quantified using the FlowJo software. Next, it was tested whether miR-584-5p-induced cell cycle arrest led to apoptosis of MB cells. […] In FIG. 8C, the bar graphs reflect DNA histograms quantified using the FlowJo software and in FIG. 8D and FIG. 9C, the bar graphs show dot plots quantified using the FlowJo software. The p-values for panels 8A-D and FIG. 9C were determined by two-way ANOVA followed by Tukey's multiple-comparisons test. Error bars represent mean±SEM. ****, p<0.0001; ***, p<0.001; **, p<0.01; *, p<0.05.
Immunofluorescence and Western blot analysis Immunofluorescence analyses was carried out on cells fixed in 4% paraformaldehyde (Imam, J. S. et al. PLoS One 7, e52397, (2012)). […]

miR-584-5p: microRNA mimic; nucleotide sequence UUAUGGUUUGCCUGGGACUGAG (SEQ ID NO: 1); purchased from Thermofisher (chemistry not given here)
transcript levels of TUBB3, TUBB2a, and TUBB2b [1]: significantly reduced transcript levels
53BP1 foci (MB cells [2]): significantly more 53BP1 foci
MB tumor growth ([3]; transfected DAOY cells, in comparison with scrambled-transfectant tumor): dramatically reduced MB growth
survival of mice ([3]; vs scrambled-transfectant group, Kaplan-Meier): lived significantly longer
mitotic cells (MB cells [4]): significantly more mitotic cells
